In BindingDB's records for doi:10.1021/jm970560h (Warner-Lambert, 1998):

Molecular target: Sterol O-acyltransferase 1 (ACAT) (Mus musculus) (UniProt Q61263)
Experiment: Inhibition of Acyl coenzyme A:cholesterol acyltransferase by cellular MAI2 assay

Sterol O-acyltransferase 1 (ACAT) (Mus musculus), sequence (Q61263 whole entry, looked up): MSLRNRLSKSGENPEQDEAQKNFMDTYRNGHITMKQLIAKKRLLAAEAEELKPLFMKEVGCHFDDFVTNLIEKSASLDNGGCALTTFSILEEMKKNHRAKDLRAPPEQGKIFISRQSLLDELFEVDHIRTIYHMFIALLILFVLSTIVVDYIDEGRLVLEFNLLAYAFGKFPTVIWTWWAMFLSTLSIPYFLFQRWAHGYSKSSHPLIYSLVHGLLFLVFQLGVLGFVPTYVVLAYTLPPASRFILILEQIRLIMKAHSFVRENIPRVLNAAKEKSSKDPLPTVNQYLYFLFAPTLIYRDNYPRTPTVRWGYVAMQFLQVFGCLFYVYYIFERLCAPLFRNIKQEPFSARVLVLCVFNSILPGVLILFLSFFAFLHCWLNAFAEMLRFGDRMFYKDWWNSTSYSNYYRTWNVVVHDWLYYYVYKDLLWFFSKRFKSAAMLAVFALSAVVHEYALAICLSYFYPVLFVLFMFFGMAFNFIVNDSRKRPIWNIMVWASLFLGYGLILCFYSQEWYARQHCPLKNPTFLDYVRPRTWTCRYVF

Question: How did the IC50 turn out when CCCCCCCCCCCCOC(=O)C(C(=O)Nc1c(C(C)C)cccc1C(C)C)c1ccccc1 (stereo unspecified) [N-(2,6-Diisopropyl-phenyl)-2-phenyl-malonamic acid dodecyl ester] was run?
Answer: Its IC50 is 20 nM.
